Measurements reported in article PMC6023086, “Improving the Activity of Trp-Rich Antimicrobial Peptides by Arg/Lys Substitutions and Changing the Length of Cationic Residues” (Biomolecules, 2018).
Converted amounts (≈) assume the structure as drawn. Where a SMILES comes first, the peptide text is derived from it. Where no end group is shown, it is not given here. [ ]: non-standard residue; d: D form. Orn = NCCC[C@H](N)C(=O)O; Dab = NCC[C@H](N)C(=O)O; Dap = NC[C@H](N)C(=O)O

These compounds were tested on Escherichia coli ATCC 25922. Conditions: ATCC 25922, 16 h.
Type: cell-based
Experimental: The antibacterial activity of the Tritrp-derived peptides and other AMPs was assessed against E. coli ATCC 25922, as a representative of Gram-negative bacteria, incubated in Mueller-Hinton broth media (Table 2). […] Arg-to-Lys mutations were correlated with a decrease in activity for almost all peptides. […] The lack of sensitivity of the activity of the Tritrp3 peptide to the nature of the positively charged residues prompted a more detailed study of the structure-activity relationship. Tritrp7 and Tritrp8 are analogs of Tritrp3 where only a single Pro residue is mutated by Ala. These mutations are known to alter the 3D structure of the peptides when interacting with sodium dodecyl sulfate (SDS) micelles, specifically reducing the helicity of the original Tritrp3 peptide (Table 1).
The antibacterial activity for the peptides in this study against E. coli ATCC 25922 was determined by the broth microdilution method. Briefly, E. coli cells at 5 × 10^5 cfu/mL, obtained from a single colony culture, were incubated in Mueller Hinton broth (MHB) media (Sigma Aldrich, St. Louis, MO, USA) in the presence of two-fold dilution of peptides (0–256 µM) in 96-well polypropylene microtiter plates (Sigma Aldrich, St. Louis, MO, USA). The plates were incubated at 37 °C for 16 h, and the minimal inhibitory concentration was determined after incubation as the minimal peptide concentration at which cell growth was not observed.

Compound | MIC [µM]
CC[C@H](C)[C@H](N)C(=O)N[C@@H](CC(C)C)C(=O)N1CCC[C@H]1C(=O)N[C@@H](Cc1c[nH]c2ccccc12)C(=O)N[C@@H](CCCCN)C(=O)N[C@@H](Cc1c[nH]c2ccccc12)C(=O)N1CCC[C@H]1C(=O)N[C@@H](Cc1c[nH]c2ccccc12)C(=O)N[C@@H](Cc1c[nH]c2ccccc12)C(=O)N1CCC[C@H]1C(=O)N[C@@H](Cc1c[nH]c2ccccc12)C(=O)N[C@@H](CCCNC(=N)N)C(=O)N[C@@H](CCCNC(=N)N)C(N)=O [Indolicidin, reference compound] | 8 (≈ 15.3 µg/mL)
CC(C)C[C@H](NC(=O)[C@H](Cc1ccccc1)NC(=O)[C@@H]1CCCN1C(=O)[C@H](Cc1c[nH]c2ccccc12)NC(=O)[C@H](Cc1c[nH]c2ccccc12)NC(=O)[C@H](Cc1c[nH]c2ccccc12)NC(=O)[C@@H]1CCCN1C(=O)[C@H](Cc1ccccc1)NC(=O)[C@H](CCNC(=N)N)NC(=O)[C@H](CCNC(=N)N)NC(=O)[C@@H](N)C(C)C)C(=O)N[C@@H](CCNC(=N)N)C(=O)N[C@@H](CCNC(=N)N)C(N)=O [Tritrp–Agb] | 4 (≈ 7.38 µg/mL)
CC(C)C[C@H](NC(=O)[C@H](Cc1ccccc1)NC(=O)[C@@H]1CCCN1C(=O)[C@H](Cc1c[nH]c2ccccc12)NC(=O)[C@H](Cc1c[nH]c2ccccc12)NC(=O)[C@H](Cc1c[nH]c2ccccc12)NC(=O)[C@@H]1CCCN1C(=O)[C@H](Cc1ccccc1)NC(=O)[C@H](CCCNC(=N)N)NC(=O)[C@H](CCCNC(=N)N)NC(=O)[C@@H](N)C(C)C)C(=O)N[C@@H](CCCNC(=N)N)C(=O)N[C@@H](CCCNC(=N)N)C(N)=O [Tritrp–Arg] | 2 to 4
CC(C)C[C@H](NC(=O)[C@H](Cc1ccccc1)NC(=O)[C@@H]1CCCN1C(=O)[C@H](Cc1c[nH]c2ccccc12)NC(=O)[C@H](Cc1c[nH]c2ccccc12)NC(=O)[C@H](Cc1c[nH]c2ccccc12)NC(=O)[C@@H]1CCCN1C(=O)[C@H](Cc1ccccc1)NC(=O)[C@H](CCN)NC(=O)[C@H](CCN)NC(=O)[C@@H](N)C(C)C)C(=O)N[C@@H](CCN)C(=O)N[C@@H](CCN)C(N)=O [Tritrp–Dab] (H-V[Dab][Dab]FPWWWPFL[Dab][Dab]-NH2) | 4 to 8
CC(C)C[C@H](NC(=O)[C@H](Cc1ccccc1)NC(=O)[C@@H]1CCCN1C(=O)[C@H](Cc1c[nH]c2ccccc12)NC(=O)[C@H](Cc1c[nH]c2ccccc12)NC(=O)[C@H](Cc1c[nH]c2ccccc12)NC(=O)[C@@H]1CCCN1C(=O)[C@H](Cc1ccccc1)NC(=O)[C@H](CN)NC(=O)[C@H](CN)NC(=O)[C@@H](N)C(C)C)C(=O)N[C@@H](CN)C(=O)N[C@@H](CN)C(N)=O [Tritrp–Dap] (H-V[Dap][Dap]FPWWWPFL[Dap][Dap]-NH2) | 4 (≈ 6.48 µg/mL)
CC(C)C[C@H](NC(=O)[C@H](Cc1ccccc1)NC(=O)[C@@H]1CCCN1C(=O)[C@H](Cc1c[nH]c2ccccc12)NC(=O)[C@H](Cc1c[nH]c2ccccc12)NC(=O)[C@H](Cc1c[nH]c2ccccc12)NC(=O)[C@@H]1CCCN1C(=O)[C@H](Cc1ccccc1)NC(=O)[C@H](CCCN)NC(=O)[C@H](CCCN)NC(=O)[C@@H](N)C(C)C)C(=O)N[C@@H](CCCN)C(=O)N[C@@H](CCCN)C(N)=O [Tritrp–Orn] (H-V[Orn][Orn]FPWWWPFL[Orn][Orn]-NH2) | 16 (≈ 27.7 µg/mL)
CC(C)C[C@H](NC(=O)[C@H](Cc1ccccc1)NC(=O)[C@@H]1CCCN1C(=O)[C@H](Cc1c[nH]c2ccccc12)NC(=O)[C@H](Cc1c[nH]c2ccccc12)NC(=O)[C@H](Cc1c[nH]c2ccccc12)NC(=O)[C@@H]1CCCN1C(=O)[C@H](Cc1ccccc1)NC(=O)[C@H](CCCCNC(=N)N)NC(=O)[C@H](CCCCNC(=N)N)NC(=O)[C@@H](N)C(C)C)C(=O)N[C@@H](CCCCNC(=N)N)C(=O)N[C@@H](CCCCNC(=N)N)C(N)=O [Tritrp–hArg] | 4 (≈ 7.83 µg/mL)
GIGRWLHSARRFGRAFVGEIMNS [Magainin2-F5W–Arg] | 8
ILPWKWPWWPWKK-NH2 [Indolicidin–Lys] | 16
VKKFAWWWAFLKK-NH2 [Tritrp3–Lys] | 2
VKKFAWWWPFLKK-NH2 [Tritrp7–Lys] | 32
VKKFPWWWAFLKK-NH2 [Tritrp8–Lys] | 4
VKKFPWWWPFLKK-NH2 [Tritrp–Lys] | 16
VRRFAWWWAFLRR-NH2 [Tritrp3–Arg] | 2
VRRFAWWWPFLRR-NH2 [Tritrp7–Arg] | 8
VRRFPWWWAFLRR-NH2 [Tritrp8–Arg] | 2 to 4

Same assay, conditions: E. coli ATCC 25922, Mueller-Hinton broth, 5 × 10^5 cfu/mL, 37 °C, 16 h; run in triplicate, range of all three experiments

Compound | MIC [µM]
FPVTWKWWKWWKG-NH2 [PuroA–Lys, reference compound] | 8
FPVTWRWWRWWRG-NH2 [PuroA–Arg] | 8 to 16
